According to ChEMBL document CHEMBL4814046, “Inhibitory effects and mechanism of antifungal action of the natural cyclic depsipeptide, aureobasidin A against Cryptococcus neoformans” (Bioorg Med Chem Lett, 2021):
Converted amounts (≈) assume the structure as drawn. The source made the active and inactive calls. No cut-off for these calls is given here. *1 amine or outer side, *2 acyl side, *3 side chain or, on linkers, in order; H or OH if unused. Where a SMILES comes first, the peptide text is derived from it. [ ]: non-standard residue; d: D form. X1 = CC[C@@H](C)[C@@H](O[*:1])C(=O)[*:2]; NMeVal(β-OH) = CN[C@H](C(=O)O)C(C)(C)O; NMeF = CN[C@@H](Cc1ccccc1)C(=O)O; aIle = CC[C@@H](C)[C@H](N)C(=O)O; NMeV = CN[C@H](C(=O)O)C(C)C

How the values were obtained:
[1] = tested on: Cryptococcus neoformans; assay: Inhibition of ergosterol biosynthesis in Cryptococcus neoformans PFCC 93-589 cell membrane assessed as ergosterol content at 1 times MIC incubated for 48 hrs by UV-visible spectrophotometric analysis (reference value: 0.134); assay type: functional, cell membranes
[2] = tested on: Candida tropicalis; assay: Antifungal activity against Candida tropicalis incubated for 24 hrs by broth microdilution method; assay type: functional
[3] = tested on: Cryptococcus neoformans; assay: Inhibition of ergosterol biosynthesis in Cryptococcus neoformans PFCC 93-589 cell membrane at 1 times MIC incubated for 48 hrs by UV-visible spectrophotometric analysis; assay type: functional, cell membranes
[4] = tested on: Cryptococcus neoformans; assay: Antifungal activity against Cryptococcus neoformans PFCC 93-589 after 7 days in presence of sorbitol by microdilution assay; assay type: functional; conditions: PFCC 93-589, 168 h, time 7 day
[5] = tested on: Pichia kudriavzevii; assay: Antifungal activity against Candida krusei incubated for 24 hrs by broth microdilution method; assay type: functional
[6] = Hemolytic activity in human RBC at 2 ug/ml incubated for 30 mins; assay type: ADME, cell-based, Erythrocyte; conditions: red blood cells (erythrocytes), at 2 µg/mL, read-out: Activity
[7] = tested on: Cryptococcus neoformans; assay: Antifungal activity against Cryptococcus neoformans PFCC 93-589 assessed as TOS production at 1 times MIC incubated for 10 mins measured per mg of protein by colorimetric method (reference value: 1.19 umol); assay type: functional
[8] = tested on: Cryptococcus neoformans; assay: Antifungal activity against Cryptococcus neoformans PFCC 93-589 after 2 days in absence of sorbitol by microdilution assay; assay type: functional; conditions: PFCC 93-589, 48 h, time 2 day
[9] = tested on: Cryptococcus neoformans; assay: Antifungal activity against Cryptococcus neoformans PFCC 93-589 by broth microdilution assay; assay type: functional
[10] = Hemolytic activity in human RBC at 1 ug/ml incubated for 30 mins; assay type: ADME, cell-based, Erythrocyte; conditions: red blood cells (erythrocytes), at 1 µg/mL, read-out: Activity
[11] = Hemolytic activity in human RBC at 8 ug/ml incubated for 30 mins; assay type: ADME, cell-based, Erythrocyte; conditions: red blood cells (erythrocytes), at 8 µg/mL, read-out: Activity
[12] = tested on: Candida parapsilosis; assay: Antifungal activity against Candida parapsilosis incubated for 24 hrs by broth microdilution method; assay type: functional; conditions: Lodderomyces parapsilosis
[13] = tested on: Cryptococcus neoformans; assay: Antifungal activity against Cryptococcus neoformans PFCC 93-589 assessed as half minimum inhibitory concentration by broth microdilution assay; assay type: functional
[14] = tested on: Cryptococcus neoformans; assay: Antifungal activity against Cryptococcus neoformans PFCC 93-589 assessed as increase in extracellular potassium leakage at 2 times MIC incubated up to 12 hrs measured per mg dry weight of cell by spectrophotometric method; assay type: functional; conditions: time hrs <=12
[15] = Hemolytic activity in human RBC at 0.5 ug/ml incubated for 30 mins; assay type: ADME, cell-based, Erythrocyte; conditions: red blood cells (erythrocytes), at 0.5 µg/mL, read-out: Activity
[16] = tested on: Cryptococcus neoformans; assay: Synergistic antifungal activity against Cryptococcus neoformans PFCC 93-589 assessed as fractional inhibitory concentration index in presence of fluconazole by checkerboard microtiter assay; assay type: functional
[17] = tested on: Cryptococcus neoformans; assay: Antifungal activity against Cryptococcus neoformans PFCC 93-589 after 2 days in presence of sorbitol by microdilution assay; assay type: functional; conditions: PFCC 93-589, 48 h, time 2 day
[18] = tested on: Aspergillus niger; assay: Antifungal activity against Aspergillus niger incubated for 48 hrs by broth microdilution method; assay type: functional
[19] = tested on: Cryptococcus neoformans; assay: Inhibition of ergosterol biosynthesis in Cryptococcus neoformans PFCC 93-589 cell membrane assessed as ergosterol content at 0.5 times MIC incubated for 48 hrs by UV-visible spectrophotometric analysis (reference value: 0.134); assay type: functional, cell membranes
[20] = tested on: Nakaseomyces glabratus; assay: Antifungal activity against Candida glabrata incubated for 24 hrs by broth microdilution method; assay type: functional
[21] = tested on: Cryptococcus neoformans; assay: Antifungal activity against Cryptococcus neoformans PFCC 93-589 assessed as TOS production at 2 times MIC incubated for 10 mins measured per mg of protein by colorimetric method (reference value: 1.63 umol); assay type: functional
[22] = tested on: Cryptococcus neoformans; assay: Antifungal activity against Cryptococcus neoformans PFCC 93-589 assessed as TOS production at 0.5 times MIC incubated for 10 mins measured per mg of protein by colorimetric method (reference value: 1.04 umol); assay type: functional
[23] = Cytotoxicity against human HEK293 cells assessed as cell survival at 0.5 times MIC incubated for 24 hrs by MTT assay; assay type: cell-based; conditions: read-out: Activity
[24] = tested on: Cryptococcus neoformans; assay: Antifungal activity against Cryptococcus neoformans PFCC 93-589 after 7 days in absence of sorbitol by microdilution assay; assay type: functional; conditions: PFCC 93-589, 168 h, time 7 day
[25] = tested on: Cryptococcus neoformans; assay: Inhibition of ergosterol biosynthesis in Cryptococcus neoformans PFCC 93-589 cell membrane at 0.5 times MIC incubated for 48 hrs by UV-visible spectrophotometric analysis; assay type: functional, cell membranes
[26] = tested on: Cryptococcus neoformans; assay: Fungicidal activity against Cryptococcus neoformans PFCC 93-589 by broth microdilution assay; assay type: functional
[27] = tested on: Cryptococcus neoformans; assay: Downregulation of Cxt1p gene expression in Cryptococcus neoformans PFCC 93-589 at 2 ug/ml by SYBR green based RT-PCR analysis relative to control; assay type: functional; conditions: dose 2.0 µg/ml
[28] = Cytotoxicity against human HEK293 cells assessed as cell survival at 1 times MIC incubated for 24 hrs by MTT assay; assay type: cell-based; conditions: read-out: Activity
[29] = Cytotoxicity against human HEK293 cells assessed as cell survival at 0.25 times MIC incubated for 24 hrs by MTT assay; assay type: cell-based; conditions: read-out: Activity
[30] = tested on: Cryptococcus neoformans; assay: Downregulation of Cxt1p gene expression in Cryptococcus neoformans PFCC 93-589 assessed as fold decrease in […] at 2 ug/ml by SYBR green based RT-PCR analysis; assay type: functional; conditions: dose 2.0 µg/ml
[31] = tested on: Cryptococcus neoformans; assay: Induction of morphological changes in Cryptococcus neoformans PFCC 93-589 assessed as disorganization of cytoplasmic content at 2 ug/ml after 48 hrs by TEM analysis; assay type: functional, organism-based; conditions: dose 2.0 µg/ml
[32] = tested on: Cryptococcus neoformans; assay: Induction of morphological changes in Cryptococcus neoformans PFCC 93-589 assessed as deposition of lipid globules at 2 ug/ml after 48 hrs by TEM analysis; assay type: functional, organism-based; conditions: dose 2.0 µg/ml
[33] = tested on: Aspergillus flavus; assay: Antifungal activity against Aspergillus flavus incubated for 48 hrs by broth microdilution method; assay type: functional
[34] = tested on: Cryptococcus neoformans; assay: Upregulation of Lac1 gene expression in Cryptococcus neoformans PFCC 93-589 assessed as fold increase in […] at 2 ug/ml by SYBR green based RT-PCR analysis; assay type: functional; conditions: dose 2.0 µg/ml
[35] = tested on: Cryptococcus neoformans; assay: Antifungal activity against Cryptococcus neoformans PFCC 93-589 in presence of fluconazole by checkerboard microtiter assay; assay type: functional
[36] = tested on: Aspergillus fumigatus; assay: Antifungal activity against Aspergillus fumigatus incubated for 48 hrs by broth microdilution method; assay type: functional
[37] = tested on: Cryptococcus neoformans; assay: Induction of morphological changes in Cryptococcus neoformans PFCC 93-589 assessed as excessive vacuolization at 2 ug/ml after 48 hrs by TEM analysis; assay type: functional, organism-based; conditions: dose 2.0 µg/ml
[38] = Cytotoxicity against human HEK293 cells assessed as inhibition of cell viability at 2 times MIC incubated for 24 hrs by MTT assay; assay type: cell-based; conditions: at 8 µg/mL, read-out: INH
[39] = tested on: Cryptococcus neoformans; assay: Antifungal activity against Cryptococcus neoformans PFCC 93-589 assessed as inhibition of melanin production at 0.5 times MIC incubated for 2 to 10 days; assay type: functional, organism-based; conditions: time 2-10 day
[40] = tested on: Candida albicans; assay: Antifungal activity against Candida albicans incubated for 24 hrs by broth microdilution method; assay type: functional
[41] = Hemolytic activity in human RBC at 4 ug/ml incubated for 30 mins; assay type: cell-based, Erythrocyte; conditions: red blood cells (erythrocytes), at 4 µg/mL, read-out: Activity

Structure (SMILES): CC[C@@H](C)[C@@H]1NC(=O)[C@@H]2CCCN2C(=O)[C@H](Cc2ccccc2)N(C)C(=O)[C@H](Cc2ccccc2)NC(=O)[C@H](C(C)C)N(C)C(=O)[C@@H]([C@H](C)CC)OC(=O)[C@H](C(C)(C)O)N(C)C(=O)[C@H](CC(C)C)NC(=O)[C@H](C(C)C)N(C)C1=O [AUREOBASIDIN A] (cyclo(F[NMeF]P[aIle][NMeV]L[NMeVal(β-OH)][X1][NMeV]))
- Activity [1]: 0.078
- MIC [2]: < 2000 µg/mL
- inhibition [3]: 41.8%
- MIC [4]: 16 µg/mL
- MIC [5]: < 2000 µg/mL
- hemolysis at 0.5 h, 2 ug/ml [6]: 0.65%
- Activity [7]: 2.12 nmol
- MIC [8]: 8 µg/mL (≈ 7.26 µM)
- MIC [9]: 4 µg/mL (≈ 3.63 µM)
- hemolysis at 0.5 h, 1 ug/ml [10]: 0.31%
- hemolysis at 0.5 h, 8 ug/ml [11]: 2.4%
- MIC [12]: < 2000 µg/mL
- MIC [13]: 2 µg/mL (≈ 1.82 µM)
- Activity [14]: 2.51 mM
- hemolysis at 0.5 h, 0.5 ug/ml [15]: 0%
- fractional inhibitory concentration index (FICI) [16]: 0.26
- MIC [17]: 8 µg/mL
- MIC [18]: 800 µg/mL (≈ 726 µM)
- Activity [19]: 0.095
- MIC [20]: < 2000 µg/mL
- Activity [21]: 3.09 nmol
- Activity [22]: 1.46 nmol
- viability at 24 h, 0.5 times MIC [23]: 89%
- MIC [24]: 16 µg/mL (≈ 14.5 µM)
- inhibition [25]: 29.1%
- MFC [26]: 8 µg/mL (≈ 7.26 µM)
- inhibition [27]: 80%
- viability at 24 h, 1 times MIC [28]: 75%
- viability at 24 h, 0.25 times MIC [29]: 98%
- fold change (FC) [30]: 0.2
- Activity [31]: Active
- Activity [32]: Active
- MIC [33]: > 50000 µg/mL
- fold change (FC) [34]: 11.7
- MIC [35]: 1 µg/mL
- MIC [36]: > 50000 µg/mL
- Activity [37]: Active
- cytotoxicity at 24 h, 2 times MIC [38]: 40%
- Activity [39]: Active
- MIC [40]: < 2000 µg/mL
- hemolysis at 0.5 h, 4 ug/ml [41]: 1.35%

Structure (SMILES): C[C@@H]1[C@H](O)[C@@H](C)/C=C/C=C/C=C/C=C/C=C/C=C/C=C/[C@H](O[C@@H]2O[C@H](C)[C@@H](O)[C@H](N)[C@@H]2O)C[C@@H]2O[C@](O)(C[C@@H](O)C[C@@H](O)[C@H](O)CC[C@@H](O)C[C@@H](O)CC(=O)O[C@H]1C)C[C@H](O)[C@H]2C(=O)O [AMPHOTERICIN B]
- MIC [9]: 0.25 µg/mL (≈ 0.271 µM)
- MIC [13]: 0.125 µg/mL (≈ 0.135 µM)
- Activity [14]: 3.56 mM
- MFC [26]: 1 µg/mL (≈ 1.08 µM)
